What follows are molecules tested against T1, human Endothelial Differentiation Gene 1 (EDG1) (Homo sapiens, UniProt P21453) (assay: S1P1 Tango assay - 384 well format). Conditions: EDG1-bla/U2OS cells, agonist.
T1 construct: TEV protease site; Gal4-VP16 transcription factor; expressed in transfected cells; host or cells: EDG1-bla/U2OS (Tango GPCR-bla U2OS parental cell line)
T1 sequence (P21453 whole entry, the tested form may be a part): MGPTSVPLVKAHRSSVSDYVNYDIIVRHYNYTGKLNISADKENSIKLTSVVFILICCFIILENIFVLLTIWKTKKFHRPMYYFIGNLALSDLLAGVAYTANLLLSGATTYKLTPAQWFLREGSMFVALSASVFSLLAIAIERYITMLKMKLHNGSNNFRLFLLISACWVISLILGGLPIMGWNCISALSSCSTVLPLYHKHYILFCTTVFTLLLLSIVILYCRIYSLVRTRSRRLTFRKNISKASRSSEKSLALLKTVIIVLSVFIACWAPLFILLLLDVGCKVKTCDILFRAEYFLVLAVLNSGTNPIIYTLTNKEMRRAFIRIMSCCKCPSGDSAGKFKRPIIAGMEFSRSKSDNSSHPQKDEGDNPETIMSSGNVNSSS
Type: cell-based
Description: S1P1 Tango assay—384 Well Format
Recombinant EDG1-bla/U2OS cells (contain the human Endothelial Differentiation Gene 1 (EDG1) linked to a TEV protease site and a Gal4-VP16 transcription factor stably integrated into the Tango GPCR-bla U2OS parental cell line) were harvested from growth medium and passaged into assay medium (Invitrogen Freestyle Expression Medium). The cells were starved for 24 hours at 37° C., 5% CO2, harvested and resuspended in assay medium at a density of ˜200,000 cells/ml. All test compounds were dissolved in DMSO at a concentration of 10 mM and were prepared in 100% DMSO to provide 10 point dose response curves. Test compounds prepared by Bravo (Velocity11) were added to wells in columns 2-11 and 13-22; DMSO was added to wells in columns 12 and 23 as unstimulated controls and assay medium was added to wells in columns 1 and 24 as cell-free controls. An S1P1 agonist was added to wells in row 2, columns 2-11 as stimulated controls and test compounds were added to wells in row 2, columns 13-22 and rows 3-15, columns 2-11/13-22 (row 1 and 16 were empty and not used). Compounds in solution were added to the assay plate (Greiner 781090) using an Echo (Labcyte) dose-response program (50 nl/well). The unstimulated and cell-free controls were loaded with 50 nl/well pure DMSO to ensure that the DMSO concentration was constant across the plate for all assays.
50 μl of the cell suspension was added to each well in columns 2-23 of the plate (˜10,000 cells per well). 50 μl of assay medium was added to each well in the cell-free controls (columns 1 and 24). The cells were incubated overnight at 37° C./5% CO2.
10 μl of 6× substrate mixture (LiveBLAzer™-FRET B/G substrate (CCF4-AM) Cat #K1096 from Invitrogen, Inc.) was added to each well using Bravo and the plates incubated at room temperature for 2 h in the dark. The plate was finally read on EnVision using one excitation channel (409 nm) and two emission channels (460 nm and 530 nm).
The blue/green emission ratio (460 nm/530 nm) was calculated for each well, by dividing the background-subtracted Blue emission values by the background-subtracted Green emission values. The dose response curve is based on sigmoidal dose-response model. All ratio data was normalized based upon the maximum emission ratio of positive control and minimum emission ratio of negative control (DMSO) on each plate. The intrinsic activity (IA) of each compound would be the normalized percentage of its maximum response after curve fitting.
With `Cc1c(-c2noc(-c3ccc(OC(C)C)c(Cl)c3)n2)ccnc1CCCC(=O)O` [Example 7, 4-[4-(5-{3-chloro-4-[(1-methylethyl)oxy]phenyl}-1,2,4-oxadiazol-3-yl)-3-methyl-2-pyridinyl]butanoic acid] the EC50 was ≤ 10 nM. With `CC(C)Oc1ncc(-c2nc(-c3cccc(CCC(=O)O)c3Cl)no2)cc1Cl` [Example 8, 3-[2-chloro-3-(5-{5-chloro-6-[(1-methylethyl)oxy]-3-pyridinyl}-1,2,4-oxadiazol-3-yl)phenyl]propanoic acid] the EC50 was ≤ 10 nM. `CC(C)Oc1ccc(-c2nc(-c3cccc(CCCC(=O)O)c3Cl)no2)cc1C#N` [Example 11, 4-[2-chloro-3-(5-{3-cyano-4-[(1-methylethyl)oxy]phenyl}-1,2,4-oxadiazol-3-yl)phenyl]butanoic acid] was tested, and the EC50 was ≤ 1 nM. With `CC(C)Oc1ccc(-c2nc(-c3cccc(CCCCCC(=O)O)c3Cl)no2)cc1C#N` [Example 12, 6-[2-chloro-3-(5-{3-cyano-4-[(1-methylethyl)oxy]phenyl}-1,2,4-oxadiazol-3-yl)phenyl]hexanoic acid] the EC50 was ≤ 1 nM. With `CCc1c(CCCC(=O)O)cccc1-c1noc(-c2cnc(OC(C)C)c(Cl)c2)n1` [Example 14, 4-[3-(5-{5-chloro-6-[(1-methylethyl)oxy]-3-pyridinyl}-1,2,4-oxadiazol-3-yl)-2-ethylphenyl]butanoic acid] the EC50 was ≤ 10 nM. In the case of `CCc1c(CCCC(=O)O)cccc1-c1noc(-c2ccc(OC(C)C)c(C#N)c2)n1` [Example 15, 4-[3-(5-{3-cyano-4-[(1-methylethyl)oxy]phenyl}-1,2,4-oxadiazol-3-yl)-2-ethylphenyl]butanoic acid], the EC50 is reported as ≤ 1 nM. `COc1c(CCCC(=O)O)cccc1-c1noc(-c2ccc(OC(C)C)c(Cl)c2)n1` [Example 17, 4-[3-(5-{3-chloro-4-[(1-methylethyl)oxy]phenyl}-1,2,4-oxadiazol-3-yl)-2-(methyloxy)phenyl]butanoic acid] was tested, and the EC50 was ≤ 1 nM. With `CC(C)Oc1ccc(-c2nc(-c3ccnc(CCC(=O)O)c3)no2)cc1C#N` [Example 20, 3-[4-(5-{3-cyano-4-[(1-methylethyl)oxy]phenyl}-1,2,4-oxadiazol-3-yl)-2-pyridinyl]propanoic acid] the EC50 was ≤ 1000 nM. For `CC(C)Oc1ccc(-c2nc(-c3ccc(F)c(CCC(=O)O)c3)no2)cc1C#N` [Example 22, 3-[5-(5-{3-cyano-4-[(1-methylethyl)oxy]phenyl}-1,2,4-oxadiazol-3-yl)-2-fluorophenyl]propanoic acid], the EC50 was ≤ 1000 nM. With `CC(C)Oc1ccc(-c2nc(-c3ccc(F)c(CCCC(=O)O)c3)no2)cc1C#N` [Example 23, 4-[5-(5-{3-cyano-4-[(1-methylethyl)oxy]phenyl}-1,2,4-oxadiazol-3-yl)-2-fluorophenyl]butanoic acid] the EC50 was ≤ 1000 nM. For `CC(C)Oc1ccc(-c2nc(-c3cccc(CCC(=O)O)c3C(F)(F)F)no2)cc1C#N` [Example 24, 3-[3-(5-{3-cyano-4-[(1-methylethyl)oxy]phenyl}-1,2,4-oxadiazol-3-yl)-2-(trifluoromethyl)phenyl]propanoic acid], the EC50 was ≤ 10 nM. For `CC(C)Oc1ccc(-c2nc(-c3cccc(CCCC(=O)O)c3C(F)(F)F)no2)cc1C#N` [Example 25, 4-[3-(5-{3-cyano-4-[(1-methylethyl)oxy]phenyl}-1,2,4-oxadiazol-3-yl)-2-(trifluoromethyl)phenyl]butanoic acid], the EC50 was ≤ 100 nM. With `CCc1c(CCCC(=O)O)cccc1-c1noc(-c2ccc(OC(C)C)c(Cl)c2)n1` [Example 28, 4-[3-(5-{3-chloro-4-[(1-methylethyl)oxy]phenyl}-1,2,4-oxadiazol-3-yl)-2-ethylphenyl]butanoic acid] the EC50 was ≤ 1 nM. For `CCc1c(CCC(=O)O)cccc1-c1noc(-c2ccc(OC(C)C)c(Cl)c2)n1` [Example 29, 3-[3-(5-{3-chloro-4-[(1-methylethyl)oxy]phenyl}-1,2,4-oxadiazol-3-yl)-2-ethylphenyl]propanoic acid], the EC50 was ≤ 1 nM. With `COc1c(CCC(=O)O)cc(F)cc1-c1noc(-c2ccc(OC(C)C)c(C#N)c2)n1` [Example 30, 3-[3-(5-{3-cyano-4-[(1-methylethyl)oxy]phenyl}-1,2,4-oxadiazol-3-yl)-5-fluoro-2-(methyloxy)phenyl]propanoic acid] the EC50 was ≤ 1 nM. For `COc1c(CCCC(=O)O)cc(F)cc1-c1noc(-c2ccc(OC(C)C)c(C#N)c2)n1` [Example 31, 4-[3-(5-{3-cyano-4-[(1-methylethyl)oxy]phenyl}-1,2,4-oxadiazol-3-yl)-5-fluoro-2-(methyloxy)phenyl]butanoic acid], the EC50 was ≤ 1 nM. For `COc1c(CCCC(=O)O)cc(F)cc1-c1noc(-c2cnc(OC(C)C)c(Cl)c2)n1` [Example 32, 4-[3-(5-{5-chloro-6-[(1-methylethyl)oxy]-3-pyridinyl}-1,2,4-oxadiazol-3-yl)-5-fluoro-2-(methyloxy)phenyl]butanoic acid], the EC50 was ≤ 10 nM. In the case of `COc1c(CCC(=O)O)cc(F)cc1-c1noc(-c2cnc(OC(C)C)c(Cl)c2)n1` [Example 33, 3-[3-(5-{5-chloro-6-[(1-methylethyl)oxy]-3-pyridinyl}-1,2,4-oxadiazol-3-yl)-5-fluoro-2-(methyloxy)phenyl]propanoic acid], the EC50 is reported as ≤ 100 nM. For `COc1c(CCC(=O)O)cc(F)cc1-c1noc(-c2ccc(OC(C)C)c(Cl)c2)n1` [Example 34, 3-[3-(5-{3-chloro-4-[(1-methylethyl)oxy]phenyl}-1,2,4-oxadiazol-3-yl)-5-fluoro-2-(methyloxy)phenyl]propanoic acid], the EC50 was ≤ 10 nM. With `COc1c(CCCC(=O)O)cc(F)cc1-c1noc(-c2ccc(OC(C)C)c(Cl)c2)n1` [Example 35, 4-[3-(5-{3-chloro-4-[(1-methylethyl)oxy]phenyl}-1,2,4-oxadiazol-3-yl)-5-fluoro-2-(methyloxy)phenyl]butanoic acid] the EC50 was ≤ 1 nM. In the case of `CCCc1c(CCCC(=O)O)cccc1-c1noc(-c2ccc(OC(C)C)c(Cl)c2)n1` [Example 36, 4-[3-(5-{3-chloro-4-[(1-methylethyl)oxy]phenyl}-1,2,4-oxadiazol-3-yl)-2-propylphenyl]butanoic acid], the EC50 is reported as ≤ 10 nM. For `CCCc1c(CCCC(=O)O)cccc1-c1noc(-c2ccc(OC(C)C)c(C#N)c2)n1` [Example 37, 4-[3-(5-{3-cyano-4-[(1-methylethyl)oxy]phenyl}-1,2,4-oxadiazol-3-yl)-2-propylphenyl]butanoic acid], the EC50 was ≤ 10 nM. For `CCc1c(OCCCC(=O)O)cccc1-c1noc(-c2ccc(OC(C)C)c(C#N)c2)n1` [Example 38, 4-{[3-(5-{3-cyano-4-[(1-methylethyl)oxy]phenyl}-1,2,4-oxadiazol-3-yl)-2-ethylphenyl]oxy}butanoic acid], the EC50 was ≤ 10 nM. With `CCc1c(OCCCC(=O)O)cccc1-c1noc(-c2ccc(OC(C)C)c(Cl)c2)n1` [Example 39, 4-{[3-(5-{3-chloro-4-[(1-methylethyl)oxy]phenyl}-1,2,4-oxadiazol-3-yl)-2-ethylphenyl]oxy}butanoic acid] the EC50 was ≤ 1 nM. In the case of `CCc1c(OCC(=O)O)cccc1-c1noc(-c2ccc(OC(C)C)c(C#N)c2)n1` [Example 40, {[3-(5-{3-cyano-4-[(1-methylethyl)oxy]phenyl}-1,2,4-oxadiazol-3-yl)-2-ethylphenyl]oxy}acetic acid], the EC50 is reported as ≤ 10 nM. `CCc1c(CCCC(=O)O)cccc1-c1nnc(-c2ccc(OC(C)C)c(C#N)c2)o1` [Example 41, 4-[3-(5-{3-cyano-4-[(1-methylethyl)oxy]phenyl}-1,3,4-oxadiazol-2-yl)-2-ethylphenyl]butanoic acid] was tested, and the EC50 was ≤ 10 nM. For `CCc1c(CNCCC(=O)O)cccc1-c1nsc(-c2ccc(OC(C)C)c(C#N)c2)n1` [Example 48, N-{[3-(5-{3-cyano-4-[(1-methylethyl)oxy]phenyl}-1,2,4-thiadiazol-3-yl)-2-ethylphenyl]methyl}-b-alanine], the EC50 was ≤ 10 nM. In the case of `CCc1c(CCN(C)CC(=O)O)cccc1-c1nsc(-c2ccc(OC(C)C)c(Cl)c2)n1` [Example 49, N-{2-[3-(5-{3-chloro-4-[(1-methylethyl)oxy]phenyl}-1,2,4-thiadiazol-3-yl)-2-ethylphenyl]ethyl}-N-methylglycine], the EC50 is reported as ≤ 1 nM. For `CCc1c(CCCC(=O)O)cccc1-c1cnc(-c2ccc(OC(C)C)c(C#N)c2)s1` [Example 50, 4-[3-(2-{3-cyano-4-[(1-methylethyl)oxy]phenyl}-1,3-thiazol-5-yl)-2-ethylphenyl]butanoic acid], the EC50 was ≤ 10 nM. In the case of `COc1c(CCCC(=O)O)cc(F)cc1-c1cnc(-c2ccc(OC(C)C)c(C#N)c2)s1` [Example 51, 4-[3-(2-{3-cyano-4-[(1-methylethyl)oxy]phenyl}-1,3-thiazol-5-yl)-5-fluoro-2-(methyloxy)phenyl]butanoic acid], the EC50 is reported as ≤ 10 nM.
